The test deals with T1, BRM (Homo sapiens, UniProt P51531).
T1 construct: In-Cell Western Screen of BRM Degradation in SW1573 Cells; endogenous in cells; host or cells: SW1573
Description: In-cell Western screen of BRM degradation in SW1573 cells (Dmax and DC50). Particulars: BRM degradation, SW1573 cells, Table 2D; for DC50: read-out: *DC50; for Dmax: read-out: **Dmax (%) (% degraded). In kind it is cell-based. In outline: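 Adherent SW1573 cultures exposed to test compounds for 18-20 h were processed for in-cell Western after PFA fixation and detergent permeabilization. BRM degradation was reported as Dmax and DC50.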

We go through twelve compounds from patent publication US12539292B2, “BRM targeting compounds and associated methods of use” (Arvinas Operations, Inc., priority 2018, dated 2026).

A word on the DC50: it is the concentration giving 50% degradation. The Dmax is the greatest extent of degradation seen.

Bounds are passed on as bounds.

T1 sequence (P51531 whole entry): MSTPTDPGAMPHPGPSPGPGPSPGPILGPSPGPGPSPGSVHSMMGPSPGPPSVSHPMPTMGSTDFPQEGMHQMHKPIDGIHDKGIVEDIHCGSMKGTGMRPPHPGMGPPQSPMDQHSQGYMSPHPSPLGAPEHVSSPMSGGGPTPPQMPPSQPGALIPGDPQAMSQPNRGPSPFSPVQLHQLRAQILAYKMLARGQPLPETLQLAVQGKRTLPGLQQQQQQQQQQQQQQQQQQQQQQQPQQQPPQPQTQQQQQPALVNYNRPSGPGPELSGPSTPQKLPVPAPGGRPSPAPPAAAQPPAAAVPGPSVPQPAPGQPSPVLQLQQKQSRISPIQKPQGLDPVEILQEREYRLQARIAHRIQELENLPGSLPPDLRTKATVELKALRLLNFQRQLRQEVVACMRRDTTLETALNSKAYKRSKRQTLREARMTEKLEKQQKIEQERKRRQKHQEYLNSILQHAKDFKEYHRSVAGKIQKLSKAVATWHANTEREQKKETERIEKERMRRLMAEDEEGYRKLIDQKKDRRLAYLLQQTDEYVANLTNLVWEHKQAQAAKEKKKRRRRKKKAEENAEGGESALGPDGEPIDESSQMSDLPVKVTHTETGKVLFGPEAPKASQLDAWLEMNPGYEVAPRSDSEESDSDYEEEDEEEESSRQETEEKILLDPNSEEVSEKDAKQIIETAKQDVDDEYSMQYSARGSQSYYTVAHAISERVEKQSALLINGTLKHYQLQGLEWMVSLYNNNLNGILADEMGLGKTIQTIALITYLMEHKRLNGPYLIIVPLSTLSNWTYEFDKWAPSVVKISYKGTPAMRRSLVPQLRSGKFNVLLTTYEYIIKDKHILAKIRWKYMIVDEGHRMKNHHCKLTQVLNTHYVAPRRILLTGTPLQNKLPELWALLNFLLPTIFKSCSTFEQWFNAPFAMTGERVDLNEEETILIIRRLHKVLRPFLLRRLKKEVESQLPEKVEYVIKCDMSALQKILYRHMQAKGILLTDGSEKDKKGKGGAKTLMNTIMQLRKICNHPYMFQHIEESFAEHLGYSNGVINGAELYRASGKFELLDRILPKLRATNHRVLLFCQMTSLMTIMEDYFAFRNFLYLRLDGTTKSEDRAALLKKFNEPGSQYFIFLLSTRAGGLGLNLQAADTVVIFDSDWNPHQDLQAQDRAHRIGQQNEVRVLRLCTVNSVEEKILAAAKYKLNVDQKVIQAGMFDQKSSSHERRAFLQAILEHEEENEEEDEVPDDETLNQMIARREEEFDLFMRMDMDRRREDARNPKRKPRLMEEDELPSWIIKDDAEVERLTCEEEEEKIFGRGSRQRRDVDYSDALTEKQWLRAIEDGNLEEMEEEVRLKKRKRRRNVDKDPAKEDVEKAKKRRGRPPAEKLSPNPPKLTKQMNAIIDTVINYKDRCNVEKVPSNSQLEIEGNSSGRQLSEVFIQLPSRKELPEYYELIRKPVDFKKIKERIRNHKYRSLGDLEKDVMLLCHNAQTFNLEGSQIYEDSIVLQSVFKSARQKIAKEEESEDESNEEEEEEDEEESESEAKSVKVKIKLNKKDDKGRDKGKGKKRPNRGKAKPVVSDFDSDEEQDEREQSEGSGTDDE

With `Cc1cc([C@H](C(=O)N2C[C@H](O)C[C@H]2C(=O)N[C@@H](C)c2ccc(-c3scnc3C)cc2)[C@H](C)COCCCn2cc(-c3cc(-c4ccccc4O)nnc3N)cn2)on1` [compound 560, (2S,4R)-1-((2R,3S)-4-(3-(4-(3-amino-6-(2-hydroxyphenyl)pyridazin-4-yl)-1H-pyrazol-1-yl)propoxy)-3-methyl-2-(3-methylisoxazol-5-yl)butanoyl)-4-hydroxy-N-((S)-1-(4-(4-methylthiazol-5-yl)phenyl)ethyl)pyrrolidine-2-carboxamide], the half-maximal degradation concentration (DC50) was more than 30 nM. On to `COc1nc(-c2scnc2C)c(F)cc1[C@H](C)NC(=O)[C@@H]1C[C@@H](O)CN1C(=O)[C@H](c1cc(OCCN2CCC(O[C@H]3C[C@H](Oc4cc(N5C6CCC5CN(c5cc(-c7ccccc7O)nnc5N)C6)ccn4)C3)CC2)no1)C(C)C` [compound 561, (2S,4R)-1-((2S)-2-(3-(2-(4-((1r,3S)-3-((4-(3-(3-amino-6-(2-hydroxyphenyl)pyridazin-4-yl)-3,8-diazabicyclo[3.2.1]octan-8-yl)pyridin-2-yl)oxy)cyclobutoxy)piperidin-1-yl)ethoxy)isoxazol-5-yl)-3-methylbutanoyl)-N-((S)-1-(5-fluoro-2-methoxy-6-(4-methylthiazol-5-yl)pyridin-3-yl)ethyl)-4-hydroxypyrrolidine-2-carboxamide], for which the DC50 is more than 30 nM. For the compound `COc1nc(-c2scnc2C)c(F)cc1[C@H](C)NC(=O)[C@@H]1C[C@@H](O)CN1C(=O)[C@@H](c1cc(OCCN2CCC(O[C@H]3C[C@H](Oc4cc(N5C6CCC5CN(c5cc(-c7ccccc7O)nnc5N)C6)ccn4)C3)CC2)no1)C(C)C` [compound 562, (2S,4R)-1-((2R)-2-(3-(2-(4-((1r,3R)-3-((4-(3-(3-amino-6-(2-hydroxyphenyl)pyridazin-4-yl)-3,8-diazabicyclo[3.2.1]octan-8-yl)pyridin-2-yl)oxy)cyclobutoxy)piperidin-1-yl)ethoxy)isoxazol-5-yl)-3-methylbutanoyl)-N-((S)-1-(5-fluoro-2-methoxy-6-(4-methylthiazol-5-yl)pyridin-3-yl)ethyl)-4-hydroxypyrrolidine-2-carboxamide], the Dmax is more than 75% and the DC50 was less than 2.5 nM. Regarding `COc1nc(-c2scnc2C)c(F)cc1[C@@H](C)NC(=O)[C@@H]1C[C@@H](O)CN1C(=O)[C@H](c1cc(OCCN2CCC(O[C@H]3C[C@H](Oc4cc(N5C6CCC5CN(c5cc(-c7ccccc7O)nnc5N)C6)ccn4)C3)CC2)no1)C(C)C` [compound 563, (2S,4R)-1-((2S)-2-(3-(2-(4-((1r,3S)-3-((4-(3-(3-amino-6-(2-hydroxyphenyl)pyridazin-4-yl)-3,8-diazabicyclo[3.2.1]octan-8-yl)pyridin-2-yl)oxy)cyclobutoxy)piperidin-1-yl)ethoxy)isoxazol-5-yl)-3-methylbutanoyl)-N-((R)-1-(5-fluoro-2-methoxy-6-(4-methylthiazol-5-yl)pyridin-3-yl)ethyl)-4-hydroxypyrrolidine-2-carboxamide], the 50% degradation concentration (DC50) is more than 30 nM. For the compound `COc1nc(-c2scnc2C)c(F)cc1[C@@H](C)NC(=O)[C@@H]1C[C@@H](O)CN1C(=O)[C@@H](c1cc(OCCN2CCC(O[C@H]3C[C@H](Oc4cc(N5C6CCC5CN(c5cc(-c7ccccc7O)nnc5N)C6)ccn4)C3)CC2)no1)C(C)C` [compound 564, (2S,4R)-1-((2R)-2-(3-(2-(4-((1r,3R)-3-((4-(3-(3-amino-6-(2-hydroxyphenyl)pyridazin-4-yl)-3,8-diazabicyclo[3.2.1]octan-8-yl)pyridin-2-yl)oxy)cyclobutoxy)piperidin-1-yl)ethoxy)isoxazol-5-yl)-3-methylbutanoyl)-N-((R)-1-(5-fluoro-2-methoxy-6-(4-methylthiazol-5-yl)pyridin-3-yl)ethyl)-4-hydroxypyrrolidine-2-carboxamide], the DC50 was more than 30 nM.

As for `CNC(=O)CCC[C@H](NC(=O)[C@@H]1C[C@@H](O)CN1C(=O)[C@H](c1cc(OCCN2CCC(O[C@H]3C[C@H](Oc4cc(N5C6CCC5CN(c5cc(-c7ccccc7O)nnc5N)C6)ccn4)C3)CC2)no1)C(C)C)c1ccc(-c2scnc2C)cc1` [compound 569, (2S,4R)-1-((2S)-2-(3-(2-(4-((1r,3S)-3-((4-(3-(3-amino-6-(2-hydroxyphenyl)pyridazin-4-yl)-3,8-diazabicyclo[3.2.1]octan-8-yl)pyridin-2-yl)oxy)cyclobutoxy)piperidin-1-yl)ethoxy)isoxazol-5-yl)-3-methylbutanoyl)-4-hydroxy-N-((S)-5-(methylamino)-1-(4-(4-methylthiazol-5-yl)phenyl)-5-oxopentyl)pyrrolidine-2-carboxamide], the 50% degradation concentration (DC50) is more than 30 nM. Consider `CNC(=O)CCC[C@H](NC(=O)[C@@H]1C[C@@H](O)CN1C(=O)[C@@H](c1cc(OCCN2CCC(O[C@H]3C[C@H](Oc4cc(N5C6CCC5CN(c5cc(-c7ccccc7O)nnc5N)C6)ccn4)C3)CC2)no1)C(C)C)c1ccc(-c2scnc2C)cc1` [compound 570, (2S,4R)-1-((2R)-2-(3-(2-(4-((1r,3R)-3-((4-(3-(3-amino-6-(2-hydroxyphenyl)pyridazin-4-yl)-3,8-diazabicyclo[3.2.1]octan-8-yl)pyridin-2-yl)oxy)cyclobutoxy)piperidin-1-yl)ethoxy)isoxazol-5-yl)-3-methylbutanoyl)-4-hydroxy-N-((S)-5-(methylamino)-1-(4-(4-methylthiazol-5-yl)phenyl)-5-oxopentyl)pyrrolidine-2-carboxamide], for which the maximal degradation (Dmax) was more than 75% and the 50% degradation concentration (DC50) was less than 2.5 nM. Consider `Cc1ncsc1-c1ccc([C@@H](NC(=O)[C@@H]2C[C@@H](O)CN2C(=O)[C@H](c2cc(N3CCC(CN4CCC(O[C@H]5C[C@H](Oc6cc(N7C8CCC7CN(c7cc(-c9ccccc9O)nnc7N)C8)ccn6)C5)CC4)CC3)no2)C(C)C)C(F)F)cc1` [compound 571, (2S,4R)-1-((2S)-2-(3-(4-((4-((1r,3r)-3-((4-(3-(3-amino-6-(2-hydroxyphenyl)pyridazin-4-yl)-3,8-diazabicyclo[3.2.1]octan-8-yl)pyridin-2-yl)oxy)cyclobutoxy)piperidin-1-yl)methyl)piperidin-1-yl)isoxazol-5-yl)-3-methylbutanoyl)-N-((R)-2,2-difluoro-1-(4-(4-methylthiazol-5-yl)phenyl)ethyl)-4-hydroxypyrrolidine-2-carboxamide], for which the half-maximal degradation concentration (DC50) is more than 30 nM. Regarding `Cc1ncsc1-c1ccc([C@@H](NC(=O)[C@@H]2C[C@@H](O)CN2C(=O)[C@@H](c2cc(N3CCC(CN4CCC(O[C@H]5C[C@H](Oc6cc(N7C8CCC7CN(c7cc(-c9ccccc9O)nnc7N)C8)ccn6)C5)CC4)CC3)no2)C(C)C)C(F)F)cc1` [compound 572, (2S,4R)-1-((2R)-2-(3-(4-((4-((1r,3r)-3-((4-(3-(3-amino-6-(2-hydroxyphenyl)pyridazin-4-yl)-3,8-diazabicyclo[3.2.1]octan-8-yl)pyridin-2-yl)oxy)cyclobutoxy)piperidin-1-yl)methyl)piperidin-1-yl)isoxazol-5-yl)-3-methylbutanoyl)-N-((R)-2,2-difluoro-1-(4-(4-methylthiazol-5-yl)phenyl)ethyl)-4-hydroxypyrrolidine-2-carboxamide], the Dmax was more than 75% and the 50% degradation concentration (DC50) is less than 2.5 nM.

On to `Cc1nccn1-c1ccc([C@H](C)NC(=O)[C@@H]2C[C@@H](O)CN2C(=O)[C@H](c2cc(N3CCN(C[C@H]4C[C@H](Oc5cc(N6C7CCC6CN(c6cc(-c8ccccc8O)nnc6N)C7)ccn5)C4)CC3)no2)C(C)C)cc1` [compound 575, (2S,4R)-1-((2S)-2-(3-(4-(((1r,3S)-3-((4-(3-(3-amino-6-(2-hydroxyphenyl)pyridazin-4-yl)-3,8-diazabicyclo[3.2.1]octan-8-yl)pyridin-2-yl)oxy)cyclobutyl)methyl)piperazin-1-yl)isoxazol-5-yl)-3-methylbutanoyl)-4-hydroxy-N-((S)-1-(4-(2-methyl-1H-imidazol-1-yl)phenyl)ethyl)pyrrolidine-2-carboxamide], for which the Dmax is 50 to 75% and the DC50 lay within 10 to 30 nM. With `Cc1nccn1-c1ccc([C@H](C)NC(=O)[C@@H]2C[C@@H](O)CN2C(=O)[C@@H](c2cc(N3CCN(C[C@H]4C[C@H](Oc5cc(N6C7CCC6CN(c6cc(-c8ccccc8O)nnc6N)C7)ccn5)C4)CC3)no2)C(C)C)cc1` [compound 576, (2S,4R)-1-((2R)-2-(3-(4-(((1r,3R)-3-((4-(3-(3-amino-6-(2-hydroxyphenyl)pyridazin-4-yl)-3,8-diazabicyclo[3.2.1]octan-8-yl)pyridin-2-yl)oxy)cyclobutyl)methyl)piperazin-1-yl)isoxazol-5-yl)-3-methylbutanoyl)-4-hydroxy-N-((S)-1-(4-(2-methyl-1H-imidazol-1-yl)phenyl)ethyl)pyrrolidine-2-carboxamide], the Dmax is more than 75% and the 50% degradation concentration (DC50) is less than 2.5 nM. With `Cc1ncsc1-c1ccc([C@H](C)NC(=O)[C@@H]2C[C@@H](O)CN2C(=O)[C@H](c2cc(OCCC3CCN(C[C@H]4C[C@H](Oc5cc(N6C7CCC6CN(c6cc(-c8ccccc8O)nnc6N)C7)ccn5)C4)CC3)no2)C(C)C)c(F)c1F` [compound 587, (2S,4R)-1-((2S)-2-(3-(2-(1-(((1r,3S)-3-((4-(3-(3-amino-6-(2-hydroxyphenyl)pyridazin-4-yl)-3,8-diazabicyclo[3.2.1]octan-8-yl)pyridin-2-yl)oxy)cyclobutyl)methyl)piperidin-4-yl)ethoxy)isoxazol-5-yl)-3-methylbutanoyl)-N-((S)-1-(2,3-difluoro-4-(4-methylthiazol-5-yl)phenyl)ethyl)-4-hydroxypyrrolidine-2-carboxamide], the DC50 was more than 30 nM.
